Data from patent US20040242547A1, “Arylazo-substituted imidazole for the treatment of stress urinary incontinence” (priority 2001, published 2004).

How the values were obtained:
[1] = tested on: human mesenteric arteries; test: Agonist potency on human mesenteric artery sections (isometric tension, organ bath); format: cell-based; details: for EC50 / mean maximum contraction: human mesenteric arteries; for EC50: endothelium removed, cocaine 10 μM, corticosterone 10 μM, propanolol 1 μM present, read-out: pEC50 (increase in developed tension) (converted); for mean maximum contraction: for the imidazole the maximum occurred at 20 micromolar
Procedure: (§1) Determinations were made of agonist potency on human LUT and blood vessel smooth muscle. Tissue sources: human lower urinary tract smooth muscle strips (prostatic/urethral) were obtained from patients undergoing transurethral resection of the prostate procedure for benign prostatic hyperplasia. Human mesenteric arteries (500-750 μm internal diameter) were obtained from patients undergoing bowel resection for carcinoma. Tissues were preserved in Krebs-bicarbonate solution at 4° C. from the time of surgery until used in functional experiments within 24 hours. Sections of mesenteric artery (5 mm in length) were set up between stainless steel stirrups after removal of the endothelium by gentle rubbing. Strips of prostatic/urethral smooth muscle (3×10 mm) and the mesenteric arteries were set up under 1 g resting tension in Krebs solution of composition (mM): NaCl 118.4; KCl 4.7; CaCl2 1.9; NaHCO3 25.0; MgSO4 1.2; KH2PO4 1.2; glucose 11.7, gassed with 5% CO2 in O2 and maintained at 37° C. The tension developed by all tissues was measured by means of isometric force transducers (Lectromed UFI 57G sensitivity) and recorded to computer via a Cambridge Electronic Design 1401 analogue to digital converter, using CHART software. Tissues were equilibrated for 60 minutes with several changes of bathing medium prior to starting drug administrations. All experiments were performed in the presence of cocaine (10 μM) and corticosterone (10 μM), to prevent neuronal and extraneuronal uptake of drugs, and propanolol (1 μM), to block B adrenoreceptors. Cumulative concentration-response curves were obtained to 2-[(5-chloro-2-methoxyphenyl)azo]-1H-imidazole, and to noradrenaline for comparison. For the mesenteric artery preparations following the recording of the final drug response to 2-[(5-chloro-2-methoxyphenyl)azo]-1H-imidazole, a supramaximal concentration of noradrenaline was added as a further test for partial agonism. Increases in developed tension to agonist were plotted and individual EC50 values were determined. From these, pEC50 (negative log of the EC50) values were determined for each experiment and where appropriate mean values of these with standard error of the means calculated.

[2] = tested on: human lower urinary tract smooth muscle strips (prostatic/urethral); test: Agonist potency on human lower urinary tract smooth muscle strips (isometric tension, organ bath); format: cell-based; details: for EC50 / Emax: human LUT strips; for EC50: cocaine 10 μM, corticosterone 10 μM, propanolol 1 μM present, read-out: pEC50 (increase in developed tension) (converted); for Emax: relative to 100 mM potassium chloride, read-out: maximum response equivalent to % of the response to 100 mM potassium chloride
Procedure: as §1, with “For the mesenteric artery preparations following the recording of the final drug response to 2-[(5-chloro-2-methoxyphenyl)azo]-1H-imidazole, a supramaximal concentration of noradrenaline was added as a further test for partial agonism.” left out

SMILES	agonist character compared with noradrenaline ([1]; human blood vessels (mesenteric arteries))	EC50 [1] [nM]	mean maximum contraction [1] [g]	EC50 [2] [nM]	Emax [2] [%]	agonist character compared with noradrenaline ([2]; human LUT tissue)	mean further increase in tension ([1]; noradrenaline 160-210 μM added after the highest concentration of 2-[(5-chloro-2-methoxyphenyl)azo]-1H-imidazole, n=3) [g]
COc1ccc(Cl)cc1N=Nc1ncc[nH]1 [2-[(5-chloro-2-methoxyphenyl)azo]-1H-imidazole]	partial agonist	5010	1.1 ± 0.7	2000	62.5	full agonist	–
NC[C@H](O)c1ccc(O)c(O)c1 [Noradrenaline, noradrenaline, reference compound]	–	661	4.22 ± 2.21	3980	63.7 ± 4.8	–	2.7 ± 0.9
